Data from paper PMC9295122, “Sialic Acid Derivatives Inhibit SiaT Transporters and Delay Bacterial Growth” (ACS Chemical Biology, 2022).
In brackets after ≈: the same amount, converted by molar mass.

Tests used:
[1] = Plasma-protein binding by RED, human; format: in vitro ADME; details: pH 7.2, read-out: Plasma-protein binding by RED (% unbound compound, average n=2)
Experimental: (§1) The assay was run in a deep well plate containing RED inserts with semipermeable dialysis membranes. The reaction was started by adding the compounds to a blank plasma in a 5 μM concentration. Opposite to the blank plasma was a compartment containing isotonic sodium–phosphate buffer (pH 7.2) separated from the plasma by the membrane. The plate was equilibrated in a water bath at 37 °C for 4 h. Samples from both the plasma and the buffer side were matrix compensated before protein precipitation. The samples were centrifuged, and the supernatants were diluted and analyzed by LC–MS/MS to determine the % unbound compound. Two incubations per compound per species.

[2] = Plasma stability, mini pig; format: in vitro ADME; details: 1 μM, 37 °C
Experimental: (§2) The reaction was started by the addition of the compound to blank plasma in LC vials after preincubation at 37 °C. The initial compound concentration was 1 μM. The reaction was stopped by the addition of ACN at seven time points (0, 0.5, 1, 2, 4, 6, and 23 h). Time point 0 h was about 15–20 s after spiking the plasma with the compound. The samples were centrifuged and the supernatant diluted and analyzed by LC–MS/MS to determine the % of compound remaining relative to the initial concentration of compound.

[3] = Plasma-protein binding by RED, mouse; format: in vitro ADME; details: pH 7.2, read-out: Plasma-protein binding by RED (% unbound compound, average n=2)
Experimental: as §1

Solubility screen = format: physicochemical; details: aqueous buffer, kinetic from dmso stock; 100 mM phosphate buffer, pH 7.4, 1% DMSO; read-out: solubility (solubility screening)
Experimental: The compounds were dissolved in 10 mM DMSO solutions. The solubility was assessed by dilution in 0.1 M phosphate buffer pH 7.4 to a concentration of 100 μM.

Plasma stability, rat = format: in vitro ADME; details: 1 μM, 37 °C
Experimental: as §2

Solid solubility = format: physicochemical; details: phosphate buffer, pH 7.4, aqueous buffer, thermodynamic from solid; from solid material, tested up to 2000 μM; read-out: Solid solubility in 0.1 M phosphate buffer pH 7.4
Source text: Duplicate samples per compound.

SiaT from P. mirabilis = biological target: T1, SiaT from P. mirabilis (Proteus mirabilis, UniProt B4EZY7); assay: biochemical; format: biochemical; details: for type of inhibition: PmSiaT, Lineweaver–Burk plot; for Ki: proteoliposome assay, Lineweaver–Burk, read-out: PmSiaT Ki
T1 construct: made in house
Experimental: To gain further insights into the molecular mechanisms, we investigated the direct effects of compounds 3e and 3f on the transport activity in proteoliposomes reconstituted with PmSiaT and SaSiaT. A kinetic analysis was performed by measuring the concentration-dependent uptake of [^3H]Neu5Ac in the presence of two different concentrations of the inhibitors 3f (Figure 5a,c) or 3e (Figure 5b,d).
Figure 5 Kinetic analysis of the inhibition of recombinant SiaT from P. mirabilis (A,B) and S. aureus (C,D) reconstituted in proteoliposomes and [^3H]Neu5Ac efflux in proteoliposomes (E,F). (a–d) Data were plotted according to Lineweaver–Burk as a reciprocal transport rate vs reciprocal Neu5Ac concentration. The transport rate was measured, in 5 min, by adding [^3H] Neu5Ac at the indicated concentrations to proteoliposomes containing 20 mM K^+-gluconate in the presence of valinomycin as described in the Supporting Information. [(A,B) P. mirabilis SiaT]; (A) compound 3f 0.25 μM (●) or 0.75 μM (□) was added in comparison to samples without inhibitor (○). (B) Compound 3e 12 μM (●) or 40 μM (□) was added in comparison to samples without an inhibitor (○). [(C,D) S. aureus SiaT]. (C) Compound 3f 80 μM (●) or 200 μM (□) was added in comparison to samples without an inhibitor (○). (D) Compound 3e 5 μM (●) or 12 μM (□) was added in comparison to samples without an inhibitor (○). Results are mean ± s.d. from four independent experiments (n = 4). […] Data are calculated as the percent of residual activity with respect to the control sample (efflux time zero). The results are the means ± s.d. of three independent experiments.
The purified SiaT from P. mirabilis and S. aureus was reconstituted by using the detergent removal procedure with the batchwise method previously pointed out.[16],[21] In brief, 2.5 μg or 5 μg of P. mirabilis and S. aureus SiaT, respectively, were mixed with 120 μL 10% C12E8, 100 μL of 10% egg yolk phospholipids (w/v, in the form of sonicated liposomes as previously described),[43] 20 mM of K^+-gluconate, and 20 mM Hepes Tris pH 7.0 in a final volume of 700 μL. The reconstitution mixture was incubated with 0.5 g Amberlite XAD-4 resin under rotatory stirring (1200 rpm) at 25 °C for 40 min.[44] The amount of reconstituted protein was estimated as previously described.[16]
For uptake experiments, 600 μL of proteoliposomes were loaded onto a Sephadex G-75 column (0.7 cm diameter × 15 cm height), pre-equilibrated with 20 mM Hepes Tris pH 7.0 with 40 mM sucrose to balance the internal osmolarity. Then, valinomycin (0.75 μg/mg phospholipid), prepared in ethanol, was added to the eluted proteoliposomes to generate a K^+ diffusion potential, as previously described. After 10 s of incubation with valinomycin, the transport was started by adding different concentrations of [^3H]-Neu5Ac (as indicated in the figures) to 100 μL proteoliposomes in the presence of 10 mM NaCl for P. mirabilis and 50 mM NaCl for S. aureus. For kinetic measurement, the initial transport rate was measured by stopping the reaction after 5 min, that is, within the initial linear range of [^3H]-Neu5Ac uptake into the proteoliposomes previously described. For efflux measurements, proteoliposomes were preloaded by incubation with [^3H]-Neu5Ac (as indicated in the figures) in the presence of 10 mM NaCl for P. mirabilis and 50 mM NaCl for S. aureus for 20 min. Efflux was started by adding 0.1 mM Neu5Ac or inhibitors to the preloaded proteoliposomes. In both uptake and efflux experiments, the transport assay was terminated by loading each proteoliposome sample (100 μL) on a Sephadex G-75 column (0.6 cm diameter × 8 cm height) to remove the external radioactivity. Proteoliposomes were eluted with 1 mL of 50 mM NaCl and collected in a 4 mL of scintillation mixture, vortexed and counted.

[4] = Neu5Ac transport by PmSiaT in proteoliposomes

T1 sequence (B4EZY7 whole entry): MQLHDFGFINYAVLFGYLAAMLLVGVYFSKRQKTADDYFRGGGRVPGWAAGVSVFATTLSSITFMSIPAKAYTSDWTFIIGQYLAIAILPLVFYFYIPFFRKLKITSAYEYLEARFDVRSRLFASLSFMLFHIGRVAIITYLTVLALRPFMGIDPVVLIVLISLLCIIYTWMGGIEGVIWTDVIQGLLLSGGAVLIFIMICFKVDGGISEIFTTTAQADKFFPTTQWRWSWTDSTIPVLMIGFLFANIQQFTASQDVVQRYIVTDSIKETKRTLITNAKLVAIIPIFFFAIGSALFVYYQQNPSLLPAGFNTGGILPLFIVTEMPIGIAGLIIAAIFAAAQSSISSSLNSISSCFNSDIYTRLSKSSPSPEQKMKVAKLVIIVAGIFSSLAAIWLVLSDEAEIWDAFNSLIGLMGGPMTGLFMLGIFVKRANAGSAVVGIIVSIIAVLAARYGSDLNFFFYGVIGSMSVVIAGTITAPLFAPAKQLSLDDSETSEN

SMILES | fraction unbound at 4 h, 5 μM [1] | In vitro plasma stability (% compound remaining after 23 h) [2] [%] | fraction unbound at 4 h, 5 μM [3] | solubility (Solubility screen) [µM] | In vitro plasma stability (% compound remaining after 23 h) (Plasma stability, rat) [%] | solubility (Solid solubility) [µM] | type of inhibition (SiaT from P. mirabilis) | Ki (SiaT from P. mirabilis) [µM] | Km (SiaT from P. mirabilis; [4]) [µM] | Vmax (SiaT from P. mirabilis; [4]) [nmol/mg protein/min]
CC(=O)NC1C(OCc2ccccc2)CC(O)(C(=O)O)OC1C(O)C(O)CO (stereo not drawn) [Compound 3a] | 0.85 | 100 | 0.63 | > 95 | 100 | > 2000 | – | – | – | –
CC(=O)NC1C(OCc2cc(F)cc(F)c2)CC(O)(C(=O)O)OC1C(O)C(O)CO (stereo not drawn) [Compound 3e] | 0.74 | 100 | 0.63 | > 95 | 100 | > 2000 | competitive inhibitors | 9.9 ± 2.6 | – | –
CC(=O)NC1C(OCc2cc(Br)cc(Br)c2)CC(O)(C(=O)O)OC1C(O)C(O)CO (stereo not drawn) [Compound 3f] | 0.27 | 39 | 0.23 | > 95 | 100 | 1630 (≈ 908 µg/mL) | competitive inhibitors | 0.13 ± 0.04 | – | –
CC(=O)N[C@H]1[C@H]([C@H](O)[C@H](O)CO)OC(O)(C(=O)O)C[C@@H]1O (stereo partly drawn) [Neu5Ac, 5-N-acetyl neuraminic acid, reference compound] | – | – | – | – | – | – | – | – | 7.5 ± 1.6 | 180 ± 56
